# PubChem BioAssay AID1845204 (Molecular Pharmacology Branch, DTP, NCI, 2023)
# The source made the active and inactive calls. The calls were made as follows: active = viability on the fitted dose curve at most 10% of control; inactive = the rest.
# System: HSSY-II tumor spheroid viability
# Assay: Anticancer human tumor HSSY-II cell line growth inhibition;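 as to IC50: spheroids exposed to compounds for seven days before reading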;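 as to viability, T/C: spheroids exposed to compounds for seven days before reading; percent of DMSO vehicle control viability so 100% = untreated level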
# Details: spheroids with HUVEC and MSC; for IC50: curve of first compound; for viability, T/C: stronger effect = lower value
# In short: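 Complex tumor spheroids combined malignant cells with endothelial cells and mesenchymal stem cells. DNA-damaging drugs and DNA repair inhibitors were tested alone and in combination, at half-log dilutions down from clinical Cmax (top 10 microM if Cmax unknown), 0.25% DMSO final.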
# [1] = second compound 30 pM, first compound 0.00949 µM
# [2] = second compound 30 pM, first compound 0.03 µM
# [3] = second compound 30 pM, first compound 0.0949 µM
# [4] = second compound 30 pM, first compound 0.3 µM
# [5] = second compound 30 pM, first compound 0.949 µM
# [6] = second compound 30 pM, first compound 3 µM
# [7] = second compound 94.9 pM, first compound 0.00949 µM
# [8] = second compound 94.9 pM, first compound 0.03 µM
# [9] = second compound 94.9 pM, first compound 0.0949 µM
# [10] = second compound 94.9 pM, first compound 0.3 µM
# [11] = second compound 94.9 pM, first compound 0.949 µM
# [12] = second compound 94.9 pM, first compound 3 µM
# [13] = second compound 0.0003 µM, first compound 0.00949 µM
# [14] = second compound 0.0003 µM, first compound 0.03 µM
# [15] = second compound 0.0003 µM, first compound 0.0949 µM
# [16] = second compound 0.0003 µM, first compound 0.3 µM
# [17] = second compound 0.0003 µM, first compound 0.949 µM
# [18] = second compound 0.0003 µM, first compound 3 µM
# [19] = second compound 0.000949 µM, first compound 0.00949 µM
# [20] = second compound 0.000949 µM, first compound 0.03 µM
# [21] = second compound 0.000949 µM, first compound 0.0949 µM
# [22] = second compound 0.000949 µM, first compound 0.3 µM
# [23] = second compound 0.000949 µM, first compound 0.949 µM
# [24] = second compound 0.000949 µM, first compound 3 µM
# [25] = second compound 0.003 µM, first compound 0.00949 µM
# [26] = second compound 0.003 µM, first compound 0.03 µM
# [27] = second compound 0.003 µM, first compound 0.0949 µM
# [28] = second compound 0.003 µM, first compound 0.3 µM
# [29] = second compound 0.003 µM, first compound 0.949 µM
# [30] = second compound 0.003 µM, first compound 3 µM
smiles,measurement,setting,value
CNCc1ccc(-c2cc(-c3nc(-c4ccc(S(=O)(=O)C(C)C)cc4)cnc3N)on2)cc1 + COc1cc2c(cc1O)CCNC21CSC2c3c(OC(C)=O)c(C)c4c(c3C(COC1=O)N1C(O)C3Cc5cc(C)c(OC)c(O)c5C(C21)N3C)OCO4,IC50,second compound 30 pM,31.5 nM
same,IC50,second compound 94.9 pM,11.5 nM
same,IC50,second compound 0.0003 µM,< 9.49 nM
same,IC50,second compound 0.000949 µM,< 9.49 nM
same,IC50,second compound 0.003 µM,< 9.49 nM
same,"viability, T/C",[1],93.8%
same,"viability, T/C",[2],51.9%
same,"viability, T/C",[3],7.62%
same,"viability, T/C",[4],4.24%
same,"viability, T/C",[5],1.27%
same,"viability, T/C",[6],0.11%
same,"viability, T/C",[7],57%
same,"viability, T/C",[8],15.9%
same,"viability, T/C",[9],4.64%
same,"viability, T/C",[10],4.08%
same,"viability, T/C",[11],1.02%
same,"viability, T/C",[12],0.1%
same,"viability, T/C",[13],10.1%
same,"viability, T/C",[14],5.43%
same,"viability, T/C",[15],3.66%
same,"viability, T/C",[16],3.41%
same,"viability, T/C",[17],0.72%
same,"viability, T/C",[18],0.12%
same,"viability, T/C",[19],2.93%
same,"viability, T/C",[20],2.47%
same,"viability, T/C",[21],2.03%
same,"viability, T/C",[22],1.1%
same,"viability, T/C",[23],0.09%
same,"viability, T/C",[24],0.15%
same,"viability, T/C",[25],0.22%
same,"viability, T/C",[26],0.27%
same,"viability, T/C",[27],0.21%
same,"viability, T/C",[28],0.2%
same,"viability, T/C",[29],0.18%
same,"viability, T/C",[30],0.25%
Cc1sc2c(c1C)C(c1ccc(Cl)cc1)=NC(CC(=O)Nc1ccc(O)cc1)c1nnc(C)n1-2 (stereo not given) + COc1cc2c(cc1O)CCNC21CSC2c3c(OC(C)=O)c(C)c4c(c3C(COC1=O)N1C(O)C3Cc5cc(C)c(OC)c(O)c5C(C21)N3C)OCO4,IC50,second compound 30 pM,108 nM
same,IC50,second compound 94.9 pM,54 nM
same,IC50,second compound 0.0003 µM,< 9.49 nM
same,IC50,second compound 0.000949 µM,< 9.49 nM
same,IC50,second compound 0.003 µM,< 9.49 nM
same,"viability, T/C",[1],84.8%
same,"viability, T/C",[2],78.4%
same,"viability, T/C",[3],53.1%
same,"viability, T/C",[4],23.3%
same,"viability, T/C",[5],14.2%
same,"viability, T/C",[6],7.89%
same,"viability, T/C",[7],76.4%
same,"viability, T/C",[8],60.5%
same,"viability, T/C",[9],40.5%
same,"viability, T/C",[10],19.5%
same,"viability, T/C",[11],11.1%
same,"viability, T/C",[12],4.34%
same,"viability, T/C",[13],11.4%
same,"viability, T/C",[14],13.4%
same,"viability, T/C",[15],10.5%
same,"viability, T/C",[16],4.16%
same,"viability, T/C",[17],1.76%
same,"viability, T/C",[18],0.21%
same,outcome,[19],active
same,"viability, T/C",[20],1.98%
same,outcome,[21],active
same,"viability, T/C",[22],0.18%
same,"viability, T/C",[23],0.05%
same,"viability, T/C",[24],0.12%
same,"viability, T/C",[25],0.14%
same,"viability, T/C",[26],0.14%
same,"viability, T/C",[27],0.17%
same,"viability, T/C",[28],0.17%
same,"viability, T/C",[29],0.14%
same,"viability, T/C",[30],0.27%
Cn1ncnc1[C@H]1c2n[nH]c(=O)c3cc(F)cc(c23)N[C@@H]1c1ccc(F)cc1 + COc1cc2c(cc1O)CCNC21CSC2c3c(OC(C)=O)c(C)c4c(c3C(COC1=O)N1C(O)C3Cc5cc(C)c(OC)c(O)c5C(C21)N3C)OCO4,IC50,second compound 30 pM,36.7 nM
same,IC50,second compound 94.9 pM,< 9.49 nM
same,IC50,second compound 0.0003 µM,< 9.49 nM
same,IC50,second compound 0.000949 µM,< 9.49 nM
same,IC50,second compound 0.003 µM,< 9.49 nM
same,"viability, T/C",[1],65.3%
same,"viability, T/C",[2],53.8%
same,"viability, T/C",[3],32%
same,"viability, T/C",[4],14.4%
same,"viability, T/C",[5],9.09%
same,"viability, T/C",[6],6.64%
same,"viability, T/C",[7],32.6%
same,"viability, T/C",[8],25.6%
same,"viability, T/C",[9],15.6%
same,"viability, T/C",[10],10.5%
same,"viability, T/C",[11],8.55%
same,"viability, T/C",[12],6.28%
same,"viability, T/C",[13],8.74%
same,"viability, T/C",[14],9.03%
same,"viability, T/C",[15],8.23%
same,"viability, T/C",[16],7.73%
same,"viability, T/C",[17],6.35%
same,"viability, T/C",[18],3.6%
same,"viability, T/C",[19],2.25%
same,"viability, T/C",[20],1.71%
same,"viability, T/C",[21],1.81%
same,"viability, T/C",[22],2.07%
same,"viability, T/C",[23],0.53%
same,"viability, T/C",[24],0.15%
same,"viability, T/C",[25],0.2%
same,"viability, T/C",[26],0.25%
same,"viability, T/C",[27],0.2%
same,"viability, T/C",[28],0.15%
same,"viability, T/C",[29],0.14%
same,"viability, T/C",[30],0.26%
O=C(c1cc(Cc2n[nH]c(=O)c3ccccc23)ccc1F)N1CCN(C(=O)C2CC2)CC1 + COc1cc2c(cc1O)CCNC21CSC2c3c(OC(C)=O)c(C)c4c(c3C(COC1=O)N1C(O)C3Cc5cc(C)c(OC)c(O)c5C(C21)N3C)OCO4,IC50,second compound 30 pM,3000 nM
same,IC50,second compound 94.9 pM,875 nM
same,IC50,second compound 0.0003 µM,< 94.9 nM
same,IC50,second compound 0.000949 µM,< 94.9 nM
same,IC50,second compound 0.003 µM,< 94.9 nM
same,"viability, T/C",[3],91.1%
same,"viability, T/C",[4],85.6%
same,"viability, T/C",[5],81.6%
same,"viability, T/C",[6],50.9%
same,"viability, T/C","second compound 30 pM, first compound 9.49 µM",12.3%
same,"viability, T/C","second compound 30 pM, first compound 30 µM",11.1%
same,"viability, T/C",[9],73%
same,"viability, T/C",[10],65.4%
same,"viability, T/C",[11],49.7%
same,"viability, T/C",[12],20.2%
same,"viability, T/C","second compound 94.9 pM, first compound 9.49 µM",9.72%
same,"viability, T/C","second compound 94.9 pM, first compound 30 µM",8.42%
same,"viability, T/C",[15],11.3%
same,"viability, T/C",[16],10.6%
same,"viability, T/C",[17],8.99%
same,"viability, T/C",[18],8.1%
same,"viability, T/C","second compound 0.0003 µM, first compound 9.49 µM",7.62%
same,"viability, T/C","second compound 0.0003 µM, first compound 30 µM",5.94%
same,"viability, T/C",[21],2.49%
same,"viability, T/C",[22],1.82%
same,"viability, T/C",[23],2.22%
same,"viability, T/C",[24],1.13%
same,"viability, T/C","second compound 0.000949 µM, first compound 9.49 µM",0.5%
same,"viability, T/C","second compound 0.000949 µM, first compound 30 µM",0.21%
same,"viability, T/C",[27],0.29%
same,"viability, T/C",[28],0.34%
same,"viability, T/C",[29],0.26%
same,"viability, T/C",[30],0.22%
same,"viability, T/C","second compound 0.003 µM, first compound 9.49 µM",0.24%
same,"viability, T/C","second compound 0.003 µM, first compound 30 µM",0.36%
